Data taken from patent US20240293514A1, “PHARMACEUTICAL COMPOSITIONS COMPRISING GLP-1R AGONISTS” (4MOVING BIOTECH, priority 2021, published 2024).
Marks after values point to notes of the source that are not given here.

Legend:
Format in all cases: in vivo, SD rats
[1] = test system: MIA-induced model of osteoarthritis and inflammatory pain in rats; assay: Von Frey filaments test, various GLP-1R agonists, MIA-induced model (Example 7)
Protocol: (§1) Seven groups comprising 8 SD rats per group were allocated for this study performed in 2 cycles (4 SD rats/cycle). Chemically-induced OA disease was performed on six out of seven groups by injecting intra-articularly (IA) in the right knee joint 3 mg of MIA in 30 μL on day 1. The control group (sham/vehicle control) received 30 μL of saline IA in the right knee joint. […] All groups 31M-37M received 1 IA injection of either saline (group 31M) or MIA (groups 32M to 37M) on day 1 and the treatment injection on day 3. During the study, body weight measurements (twice a week) and von Frey tests using electronic von Frey apparatus (on day 2, 7, for C1) and von Frey filaments (on day 10, 18, 24 and 30 for Cl, and on day 2, 7, 10, 18, 24 and 30 for C2) were performed. Group allocation was performed on day 2, based on von Frey results. Knee harvesting was performed for optional analyses at study termination at day 32.
(§2) A solution comprising dulaglutide is prepared from the product Trulicity®. Trulicity® is a commercial dulaglutide drug. Trulicity® is supplied as a “ready to use” solution at 4.5 mg/0.50 mL. It will be diluted in the appropriate volume of vehicle (NaCl 0.9%) for injection into knee joint of 270 μg in 30 μL per rat for group 33M.
(§3) Bydureon® is supplied as a “ready to use” solution at 2 mg/0.65 mL. It will be diluted in the appropriate volume of vehicle (NaCl 0.9%) for injection into knee joint of 92.31 μg in 30 μL per rat for group 34M.
(§4) Bydureon Bcise® is supplied as a “ready to use” solution at 2.35 mg/mL. It will be diluted in the appropriate volume of vehicle (NaCl 0.9%) for injection into knee joint of 70.6 μg in 30 μL per rat for group 35M.
(§5) A solution comprising lixisenatide is prepared from the product Adlyxin®. Adlyxin® is a commercial lixisenatide drug. Adlyxin® is supplied as a “ready to use” solution at 100 μg/mL. It will be diluted in the appropriate volume of vehicle (NaCl 0.9%) for injection into knee joint of 3 μg in 30 μL per rat for group 36M.
(§6) It will be diluted in the appropriate volume of vehicle (NaCl 0.9%) for injection into knee joint of 180 μg in 30 μL per rat for group 37M.
(§7) 56 male SD rats aged 9 weeks were anesthetized via a chamber induction technique using inhalation anesthesia (Isoflurane at 5%). During the procedure, the animal was maintained under Isoflurane at a level between 1.5 and 3% with an air flow rate of 1-2 liters/minute. After induction of anesthesia, the right hind limb skin surface was clipped free of hair using electric animal clippers. After shaving, the area surrounding the knee joint was wiped with alcohol. A volume of 30 μL containing 3 mg MIA was injected intra-articularly (IA) in the knee joint through the patellar tendon. A 29-gauge, 0.5-inch needle that fitted with cannulation tubing was used such that only 3 to 4 mm of the needle was allowed to puncture the joint. After injection, the knee was massaged to ensure even distribution of the solution. Animals were injected once on day 1 (groups 32M, 33M, 34M, 35M, 36M, 37M). For group 31M (sham control), 30 μL of injectable saline was injected into knee joint.
(§8) Von Frey test in the rats following MIA injection was conducted according to 4P-Pharma's proceedings “Mechanical Neuropathic Pain Evaluation (electronic Von Frey)” and to 4P-Pharma's proceedings “Mechanical Neuropathic Pain Evaluation (Von Frey)”. Rats were placed individually in the designated transparent Plexiglas chambers and allowed to acclimate for 10-15 min. Withdrawal response to mechanical stimulation was determined using electronic von Frey apparatus (BIO-EVF5, Bioseb) with a 0.5 mm diameter tip placed on the stimulator handle applied from underneath the cage through openings (12×12 mm) in the plastic mesh floor or with von Frey filaments (Bio-VF-M, Bioseb). The withdrawal response in gram-force for each rat was calculated from three trials for von Frey apparatus and once with von Frey filaments.

[2] = test system: MIA-induced model of osteoarthritis and inflammatory pain in rats; assay: Electronic von Frey test, various GLP-1R agonists, MIA-induced model (Example 7, cycle 1)
Protocol: as §1, §2, §3, §4, §5, §6, §7, §8

[3] = test system: MIA-induced model of osteoarthritis and inflammatory pain in rats; assay: Electronic and equivalent von Frey scores normalized to vehicle group (Example 7)
Protocol: Allodynia in rats following OA induction on day 1 was evaluated on day 2 and on day 7 using both Electronic (for cycle 1) and von Frey filaments (for cycle 2). Both tests are reliable and valid for the assessment of the mechanical sensitivity in the ipsilateral hind paw of rats. Additionally, von Frey filament score can be transposed approximately to an equivalent electronic von Frey score (theorical pressure in grams/mm^2). To assure the obtained results, we performed a test using both von Frey filaments and Electronic von Frey apparatus on three rats from three different groups (31M, 32M and 37M).
Equivalent electronic von Frey score was calculated using the “Aesthesio Precision Tactile sensory data chart” from the results obtained with von Frey filaments. Thus, to have a more representative vision of the results obtained in previous experiments using the electronic von Frey apparatus, we combine both the electronic von Frey scores obtained from Cycle 1 (Day 2 and 7) and the equivalent score calculated from the results obtained with the von Frey filaments for Cycle 1 (from day 10) and Cycle 2.

[4] = 270 μg IA once on day 3, D2 (baseline before treatment)
[5] = 3 μg IA once on day 3, D2 (baseline before treatment)
[6] = 180 μg IA once on day 3, D2 (baseline before treatment)

## dulaglutide
[1]; [4]
  right paw withdrawal threshold, von Frey filaments (mean): 2.28^$$$ grams
[1]; 270 μg IA once on day 3, D7
  right paw withdrawal threshold, von Frey filaments (mean): 2.85 grams
[1]; 270 μg IA once on day 3, D10
  right paw withdrawal threshold, von Frey filaments (mean): 4.75*** grams
[1]; 270 μg IA once on day 3, D18
  right paw withdrawal threshold, von Frey filaments (mean): 6.50*** grams
[1]; 270 μg IA once on day 3, D24
  right paw withdrawal threshold, von Frey filaments (mean): 7.00*** grams
[1]; 270 μg IA once on day 3, D30
  right paw withdrawal threshold, von Frey filaments (mean): 8.25*** grams
[2]; [4]
  right paw withdrawal threshold, Electronic von Frey (mean): 30.03 grams
[2]; 270 μg IA once on day 3, D7
  right paw withdrawal threshold, Electronic von Frey (mean): 50.98 grams

## lixisenatide
[1]; [5]
  right paw withdrawal threshold, von Frey filaments (mean): 1.30^$$$ grams
[1]; 3 μg IA once on day 3, D7
  right paw withdrawal threshold, von Frey filaments (mean): 5.00** grams
[1]; 3 μg IA once on day 3, D10
  right paw withdrawal threshold, von Frey filaments (mean): 7.63*** grams
[1]; 3 μg IA once on day 3, D18
  right paw withdrawal threshold, von Frey filaments (mean): 7.75*** grams
[1]; 3 μg IA once on day 3, D24
  right paw withdrawal threshold, von Frey filaments (mean): 7.25*** grams
[1]; 3 μg IA once on day 3, D30
  right paw withdrawal threshold, von Frey filaments (mean): 8.88*** grams
[2]; [5]
  right paw withdrawal threshold, Electronic von Frey (mean): 33.55 grams
[2]; 3 μg IA once on day 3, D7
  right paw withdrawal threshold, Electronic von Frey (mean): 55.15 grams
[3]; 3 μg IA (group 36M), raised to and kept
  von Frey score normalized to vehicle group (31M): 60%

## liraglutide
[1]; [6]
  right paw withdrawal threshold, von Frey filaments (mean): 1.60^$$$ grams
[1]; 180 μg IA once on day 3, D7
  right paw withdrawal threshold, von Frey filaments (mean): 8.00*** grams
[1]; 180 μg IA once on day 3, D10
  right paw withdrawal threshold, von Frey filaments (mean): 9.63*** grams
[1]; 180 μg IA once on day 3, D18
  right paw withdrawal threshold, von Frey filaments (mean): 11.63*** grams
[1]; 180 μg IA once on day 3, D24
  right paw withdrawal threshold, von Frey filaments (mean): 10.25*** grams
[1]; 180 μg IA once on day 3, D30
  right paw withdrawal threshold, von Frey filaments (mean): 9.00*** grams
[2]; [6]
  right paw withdrawal threshold, Electronic von Frey (mean): 32.88 grams
[2]; 180 μg IA once on day 3, D7
  right paw withdrawal threshold, Electronic von Frey (mean): 63.60 grams
[3]; 180 μg IA (group 37M), at day 10, level maintained for 20 days
  von Frey score normalized to vehicle group (31M): 70%
